Values belong to the compound of their own block, whether it stands above or below them. Non-standard residues stand in square brackets, D forms with d. Residues, ends and D or L forms follow the SMILES beside them. *: point of attachment. Biotin = O=C1N[C@H]2[C@H](CS[C@H]2CCCCC(=O)*)N1; pS = N[C@@H](COP(=O)(O)O)C(=O)O; Ahx = NCCCCCC(=O)O
Tests used:
PHEX = molecular target: T1, PHEX (Homo sapiens, UniProt P78562); experiment: Surface plasmon resonance: PHEX analyte binding to immobilized biotinylated ASARM-PO4; details: immobilized biotinylated ASARM-PO4, soluble PHEX analyte, FIG. 4(A); read-out: kinetics of binding
T1 sequence (P78562 46-749 limits assumed): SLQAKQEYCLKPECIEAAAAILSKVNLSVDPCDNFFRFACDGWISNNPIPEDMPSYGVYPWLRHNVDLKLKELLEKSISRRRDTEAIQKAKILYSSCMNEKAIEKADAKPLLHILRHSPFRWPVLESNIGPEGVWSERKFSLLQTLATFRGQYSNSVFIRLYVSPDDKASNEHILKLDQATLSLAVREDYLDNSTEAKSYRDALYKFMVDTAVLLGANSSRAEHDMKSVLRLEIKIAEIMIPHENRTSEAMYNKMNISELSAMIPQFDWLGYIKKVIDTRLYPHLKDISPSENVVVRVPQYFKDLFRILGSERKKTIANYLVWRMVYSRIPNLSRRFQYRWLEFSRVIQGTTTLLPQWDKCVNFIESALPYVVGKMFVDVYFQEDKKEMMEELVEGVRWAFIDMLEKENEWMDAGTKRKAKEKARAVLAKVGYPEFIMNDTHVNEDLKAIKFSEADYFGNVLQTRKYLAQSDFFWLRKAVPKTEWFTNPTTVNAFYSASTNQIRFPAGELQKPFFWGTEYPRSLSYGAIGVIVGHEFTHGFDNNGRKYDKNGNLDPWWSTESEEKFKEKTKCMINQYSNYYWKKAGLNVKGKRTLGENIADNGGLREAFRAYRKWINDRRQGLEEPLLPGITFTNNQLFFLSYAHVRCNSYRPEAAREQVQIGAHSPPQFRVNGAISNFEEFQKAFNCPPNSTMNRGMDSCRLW
Procedure: A Biacore 3000 SPR instrument in conjunction with CM5 research grade chips was used to conduct the surface Plasmon Resonance (SPR) experiments (Biacore, Piscataway, N.J.) as previously described (Rowe et al., Bone 36:33-46 (2005)). The experiments were performed at 25° C. using Biacore buffer (10 mM HEPES pH 7.4, 150 mM NaCl, 0.005% surfactant P20) supplemented with 2 mM ZnCl2 (HBS-P-Zn) or without ZnCl2 (HBS-P) as indicated. Samples were injected at a flow rate of 5 ul/min. The surfaces of research grade CM5 chips were activated by a 6-min. injection of a solution containing 0.2 M N-ethyl-N9-(dimethylaminopropyl) carbodiimide and 0.05 M N-hydroxy-succinimide. Neutravidin (Pierce) was then immobilized on the same chip (ligands) in all four flow-cells using amine coupling chemistry. One neutravidin surface was left blank as a negative control. Biotinylated peptides (including biotinylated ASARM-PO4 peptide) were then added and captured on other individual flow-cells. […] The experiments were repeated on two different chips and immobilized peptides measured as surface plasmon response units as previously described (Rowe et al., Bone 36:33-46 (2005)). The response unit or RU is a measure of surface charge density oscillation and surface […] generation as detected by changes in incident refractive index monitored by the Biacore optical unit. […]

[1] = test system: Murine bone marrow stromal cell (BMSCs) cultures; experiment: Bone marrow stromal cell mineralization assay (alizarin red staining); format: cell-based, mice
Procedure: The epiphyses of the bones from wild type (“WT”) and HYP mice were removed, and whole marrow was flushed from the diaphyses by centrifugation at 11500 rpm for 30 seconds in standard culture medium, which consisted of α-MEM (Mediatech Inc, Herndon Va., USA) supplemented with 10% FBS (Mediatech Inc, Herndon Va., USA), 10 U/ml penicillin/100 ug/ml streptomycin. The supernatant was removed, and the cell pellet was resuspended in fresh standard medium. The resuspended cells were plated in standard 25 cm^2 flasks and allowed to grow until confluence. The cells were passaged with 0.25% trypsin and 0.02% EDTA (Sigma Aldrich, Saint Louis, Mo., USA). Cells were plated on 24-well plastic culture plates at a concentration of 10×10^4 cells/well. Starting 72 hours after seeding (referred to as Day 0) nonadherent cells were discarded, and the medium was changed to one that supports osteoblast differentiation, that is, standard media plus 10 mM B glycerophosphate (Sigma Aldrich, Saint Louis, Mo., USA) and 50 mg/liter ascorbic acid (Sigma Aldrich, Saint Louis, Mo., USA). […] For quantification of staining, 500 μL 10% (v/v) acetic acid was added to each well, and the plate was incubated at room temperature for 30 min. with shaking. […] 150 μL aliquots of the supernatant were read in triplicate at 450 nm in 96-well format using opaque-walled, transparent-bottomed plates.

Kd (PHEX): 168 nM
Compound: N=C(N)NCCC[C@H](NC(=O)CCCCCNC(=O)CCCC[C@@H]1SC[C@@H]2NC(=O)N[C@@H]21)C(=O)N[C@@H](CC(=O)O)C(=O)N[C@@H](CC(=O)O)C(=O)N[C@@H](CO)C(=O)N[C@@H](CO)C(=O)N[C@@H](CCC(=O)O)C(=O)N[C@@H](CO)C(=O)N[C@@H](CO)C(=O)N[C@@H](CC(=O)O)C(=O)N[C@@H](CO)C(=O)NCC(=O)N[C@@H](COP(=O)(O)O)C(=O)N[C@@H](CO)C(=O)N[C@@H](COP(=O)(O)O)C(=O)N[C@@H](CCC(=O)O)C(=O)N[C@@H](COP(=O)(O)O)C(=O)N[C@@H](CC(=O)O)C(=O)NCC(=O)N[C@@H](CC(=O)O)C(=O)O [biotinylated-ASARM-PO4] ({Biotin-Ahx}-RDDSSESSDSG[pS]S[pS]E[pS]DGD-OH)

Compound: NH2-LKGDHSGGNGNYTGLDYNIPGYFRSTIPFHGEVDKENVAR-OH (H-LKGDHSGGNGNYTGLDYNIPGYFRSTIPFHGEVDKENVAR-OH; listed as Homo sapiens) [SPR5]
mineralization (alizarin red) ([1]; BMSC cultures supplemented with 10 μM peptide alone): mineralization occurs with great efficiency

Compound: NH2-RDDSSESSDSGS(PO3H2)SS(PO3H2)ES(PO3H2)DGD-OH (H-RDDSSESSDSG[pS]S[pS]E[pS]DGD-OH; listed as Homo sapiens) [ASARM-PO4]
mineralization (alizarin red) ([1]; BMSC cultures supplemented with 5 μM ASARM-PO4 alone): marked and statistically significant inhibition of mineralization
